Active and inactive are the calls of the source.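 Rule for the calls: active = over 50% inhibition of phosphorylation of either protein kinase C substrates or the ERK kinase; inactive = both inhibited below 50%.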
Tested on: TALL-104 cells, ERK phosphorylation flow cytometry
Assay: inhibitors of MAPKK activity via ERK phosphorylation, late-stage follow-up, mechanism study for lytic granule exocytosis inhibitor project, TALL-104 cells, flow cytometry, CherryPick01 (AID 720667)
Conditions: stronger effect = higher value; dose or concentration not given here

| SMILES | inhibition |
| --- | --- |
| Cc1ccc(S(=O)(=O)n2ccc3c(OCCOCCNCc4ccc(F)cc4)cccc32)cc1 | -8.2% (inactive) |
| COc1ccc(-c2cc(NC=O)c3ncc(-c4ccccc4)n3c2)cc1OC | -2.1% (inactive) |
| O=c1c2ccccc2sn1-c1ccccc1 | 37.9% (inactive) |
| COc1ccc(-c2cc(NC=O)c3ncc(-c4cccc(OC)c4)n3c2)cc1 | -18.8% (inactive) |
| COc1ccccc1CNc1nc(NCc2ccc(C(C)C)cc2)c2sccc2n1 | -14.8% (inactive) |
| CCCCC[C@@H](C)N1C[C@@H](COCc2ccccc2)Oc2cc(N3CC[C@@H](N(C)C)C3)ccc2S1(=O)=O | 51.1% |
| CN(C)CCNC(=O)c1ccc(-c2cn3c(-c4ccc(Oc5ccccc5)cc4)cnc3cn2)cc1 | -0.1% (inactive) |
| CCOC(=O)c1c(NC(=O)COc2ccccc2OCC)sc2c1CC(C)(C)NC2(C)C | 87.3% |
| COc1ccc(-n2sc3ccccc3c2=O)cc1 | 35% (inactive) |
| O=C(CN1C(=O)/C(=C\c2cccc(Br)c2)Oc2ccccc21)NCCCN1CCOCC1 | 8% (inactive) |
| O=C1CC(Sc2nnnn2-c2ccccc2)C(=O)N1c1cccc(Cl)c1 (configuration not stated) | 67.2% |
| CCCCC[C@@H](C)N1C[C@H](COCc2ccccc2)Oc2cc(N3CC[C@@H](N(C)C)C3)ccc2S1(=O)=O | 37.2% (inactive) |
| CC1COCC(C)N1C1=C(Cl)C(=O)c2ccccc2C1=O (configuration not stated) | -16.4% (inactive) |
| Cc1ccc(Nc2nc(NCc3ccco3)c3ccccc3n2)cc1 | 1.1% (inactive) |
| Cc1cc(N2CCN(c3nc(-c4ccc([N+](=O)[O-])cc4)cs3)CC2)c2ccccc2n1 | 78.9% |
| CCCCC[C@@H](C)N1C[C@@H](COCc2ccccc2)Oc2cc(N3CC[C@H](N(C)C)C3)ccc2S1(=O)=O | 28% (inactive) |
| COC(=O)c1c(NC(=O)c2nc3ccccc3s2)sc2c1CC(C)(C)NC2(C)C | 11.8% (inactive) |
| N#Cc1c(Nc2ccccc2Cl)s[nH]c1=O | 66.4% |
| CC(C)(c1ccccc1)c1ccc(OCC(O)CNC2CCN(Cc3ccccc3)CC2)cc1 (configuration not stated) | 36.4% (inactive) |
| O=CNc1cc(-c2ccsc2)cn2c(-c3ccccc3)cnc12 | -17.6% (inactive) |
| O=C(Cn1sc2ccccc2c1=O)Nc1ccc(F)cc1 | 18.2% (inactive) |
| CC1=NOC(=O)/C1=C/c1ccc(-c2ccc(Cl)cc2)o1 | 40.3% (inactive) |
| CCN(CC)CCCNc1ccc(-c2nnc(-c3ccc(OCC(C)C)cc3)o2)cn1 | -22.6% (inactive) |
| O=c1c2ccc(F)cc2sn1-c1ccccc1 | 53.4% |
| CC1=C(C)CS(=O)N(S(=O)(=O)c2ccc(Cl)cc2)C1 (configuration not stated) | 83.8% |
| COc1ccc(N2C(=O)CC(Sc3nnc(-c4ccccc4)o3)C2=O)cc1 (configuration not stated) | 17.4% (inactive) |
| O=C(Cn1sc2ccccc2c1=O)NC12CC3CC(CC(C3)C1)C2 | 35.6% (inactive) |
